# Reference: patent US6451837B1, “Neuroprotective effects of mitogen-activated protein kinase (MAPK) cascade inhibitors” (priority 1999, dated 2002)
# Columns and labels:
# Format in all cases: cell-based, Wistar rat
# [1] = tested on: cultured hippocampal tissue explants; assay: Cell death induced by transfer to fresh culture medium in cultured hippocampal slices, propidium iodide fluorescence
# Experimental: (§1) Seven day old Wistar rat pups were anaesthetized with fluothane, decapitated and transverse hippocampal slices (400 microns) were cultured for 12 days on 6-well tissue culture plates containing 1 ml of culture medium. The medium composition was 50% minimal essential medium (MEM), 25% horse serum, 25% Earl's balanced salt solution with D-glucose and HEPES, penicillin G and streptomycin sulfate, 5000 units/ml and 5 μg/ml respectively and the pH, 7.15. Slices were cultured at 36.5° C., 100% humidity, 95% air and 5% CO2 atmosphere, and were fed twice weekly by 50% medium exchange. All drugs were dissolved in water or dimethylsulfoxide (DMSO, final concentration was 0.1%) to make stock solutions. Controls for DMSO effects were performed where appropriate. To apply a drug, the stock solution was dissolved in 1 ml of fresh culture medium to make a desired concentration. Then, hippocampal slices were transferred for a specified time interval to the fresh medium containing the drug. To terminate the drug action, slices were again transferred to a fresh medium containing 2 mg/ml propidium iodide (PI). The medium temperature was kept at 36° C. during the transfers. Since the change of medium induced nerve cell death, control experiments were performed by transferring hippocampal slices an equal number of times into the fresh medium with the intervals between transfers equal to the time interval that slices were exposed to the drug. In a separate series of experiments the medium replacement was performed twice with a 30 minute interval in order to induce cell death. Cell death was measured as the PI fluorescence intensity by using MRC-600 Laser Scanning Confocal Imaging System. PI was added to the medium 30 minutes prior to taking control images (immediately before the drug treatment). […] Each experiment was performed at least in triplicate, on 5-6 slices each time and data expressed as an average of all experiments. Cell death index was derived from PI fluorescence intensity normalized to the intensity values obtained after the 48 hour exposure of slices to an ambient temperature of 4° C. […]
# [2] = tested on: cultured hippocampal tissue explants; assay: NMDA-induced cell death in cultured hippocampal slices, propidium iodide fluorescence; conditions: for number of dead cells lower than in explants treated with NMDA alone: staurosporine 0.2 μM; for neuroprotection to nerve cells, as described in Example 1: PD098059 about 30-90 μM, apigenin about 25-100 μM; for reduction of NMDA toxicity: treated 2 hours prior to NMDA 50 μM, PD098059 30-90 μM, wortmannin 1-5 μM, FIG. 2-4
# [3] = tested on: cultured hippocampal tissue explants; assay: Cell death induced by amyloid β-protein fragment 25-35 in cultured hippocampal slices; conditions: 30-90 μM for 2 hours prior to the addition of toxic peptides
# Experimental: as §1, with “To terminate the drug action, slices were again transferred to a fresh medium containing 2 mg/ml propidium iodide (PI). The medium temperature was kept at 36° C. during the transfers. Since the change of medium induced nerve cell death, control experiments were performed by transferring hippocampal slices an equal number of times into the fresh medium with the intervals between transfers equal to the time interval that slices were exposed to the drug. In a separate series of experiments the medium replacement was performed twice with a 30 minute interval in order to induce cell death.” left out, “System.” for “System. PI was added to the medium 30 minutes prior to taking control images (immediately before the drug treatment).”
# [4] = 24 hours after NMDA exposure, FIG. 5
compound,measurement,setting,value
NC(CCCP(=O)(O)O)C(=O)O (stereo not shown) [AP5],block of the increase in cell death caused by transfers to fresh medium,"[1]; AP5 20 μM, CA1-CA4 and dentate gyrus",not blocked
"CN[C@H](CC(=O)O)C(=O)O [NMDA, N-methyl-D-aspartate]","cells killed, relative to 4° C. exposure taken as 100% of cells","[2]; 50 μM NMDA, 30 minutes exposure",approximately 30%
same,cell death in the dentate gyrus,[2]; NMDA 2.5-500 μM,did not induce concentration-dependent increase in cell death
same,cell death in the CA1-CA4 region of the hippocampus,[2]; NMDA 2.5-500 μM for 30 minutes,marked cell death
"COc1cccc(-c2cc(=O)c3ccccc3o2)c1N [PD098059, 2-(2′-amino-3′methoxyphenyl)-oxanaphthalen-4-one]",cell death induced by toxic amyloid peptides,[3],prevented cell death
same,number of dead cells lower than in explants treated with staurosporine,[2]; [4],33%
same,number of dead cells lower than in explants treated with NMDA alone,[2]; [4],95%
same,"neuroprotection to nerve cells, as described in Example 1",[2],effective in providing neuroprotection
same,reduction of NMDA-induced cell death,[2]; applied immediately after NMDA,effective in reducing NMDA-induced cell death
same,reduction of NMDA toxicity,[2],significantly reduced NMDA toxicity
same,cell death after exposure to fresh medium at 24 hours,"[1]; 24 hours, PD098059 30-90 μM for 2 hours prior, wortmannin 1 μM, FIG. 6",significantly reduced cell death
same,cell death after exposure to fresh medium at 72 hours,"[1]; 72 hours, PD098059 30-90 μM for 2 hours prior, wortmannin 1 μM, FIG. 6",significantly reduced cell death
O=c1cc(-c2ccc(O)cc2)oc2cc(O)cc(O)c12 [apigenin],"neuroprotection to nerve cells, as described in Example 1",[2],effective in providing neuroprotection
N[C@H](CCCP(=O)(O)O)C(=O)O [d-APV],block of NMDA-induced cell death,[2]; slices exposed to NMDA for 30 minutes,could be blocked
CN[C@@H]1C[C@H]2O[C@@](C)([C@@H]1OC)n1c3ccccc3c3c4c(c5c6ccccc6n2c5c31)C(=O)NC4 [staurosporine],number of dead cells lower than in explants treated with NMDA alone,[2]; [4],45%
same,reduction of NMDA toxicity,[2],somewhat effective
